“Also recorded” adds a separate entry of the source.
Legend:
Intracellular Adenosine = assay: In vivo effect on adenosine levels in various rat tissues (HPLC, spectrofluorometric detection)
Procedure: Folinic acid (50 mg/kg) was administered intraperitoneally once daily for fourteen days. […] Hearts were removed from animals and flash frozen in liquid nitrogen with 10 seconds of death. Liver and lungs were removed en bloc and flash frozen within 30 seconds of death. Brain tissue was subsequently dissected.

HT-29 SF cells [1] = assay: DHEA effect on cell growth (cell number, Coulter counter) and its reversal by supplements; type: cell-based, human; conditions: 12.5-200 μM, 24-72 hours
HT-29 SF cells [2] = assay: Cell cycle distribution by flow cytometry (propidium iodide) and reversal of the DHEA effect; type: cell-based, human; conditions: for cell morphology: HT-29 SF cells exposed to DHEA, data not shown

## Nc1nc(=O)c2c([nH]1)NCC(CNc1ccc(C(=O)N[C@@H](CCC(=O)O)C(=O)O)cc1)N2C=O (mixture of isomers) [Folinic Acid (F.A.), Folinic acid]
Intracellular Adenosine; rats, daily for two weeks, listed as Folinic acid
  effect on tissue adenosine levels (in words): increase in adenosine levels for all organs studied
Intracellular Adenosine; rats, daily for two weeks, listed as folinic acid
  effect on tissue adenosine levels (in words): completely abrogated steroid-mediated adenosine depletion

## C[C@]12CC[C@H](O)CC1=CC[C@@H]1[C@@H]2CC[C@]2(C)C(=O)CC[C@@H]12 [DHEA, (3β)-3-hydroxyandrost-5-en-17-one]
Intracellular Adenosine; rat, in vivo
  effect on tissue adenosine levels (in words): multi-organ depletion of adenosine
HT-29 SF cells [1]
  inhibition of growth of HT-29 SF cells (in words): time- and dose-dependent inhibition of growth
HT-29 SF cells [2]; 200 μM DHEA, after 24 hours
  cell cycle distribution: increase in the percentage of cells in G1 and a decreased proportion of cells in S phase
HT-29 SF cells [2]; 25-200 μM DHEA, 24-72 hours
  effect on cell cycle (G1, S phase) with time of exposure (in words): G1 block in HT-29 SF cells in a time-and dose-dependent manner; also recorded: progressively reduced the proportion of cells in S phase
HT-29 SF cells [2]
  cell morphology: acquiring a rounded shape

## C[C@@](O)(CCO)CC(=O)O [MVA, mevalonic acid, reference compound]
HT-29 SF cells [2]; 25 FM DHEA, 72 hours
  prevention of DHEA-induced S phase depletion: not after 72 hours
HT-29 SF cells [2]
  cell morphology: prevented only by the addition of MVA

## C[C@]12CCC(=O)C=C1CC[C@@H]1[C@@H]2CC[C@@]2(C)[C@H]1CC[C@]2(C)O [Methyltestosterone, methyltestosterone]
Intracellular Adenosine; rats, daily for two weeks
  effect on tissue adenosine levels (in words): multi-organ depletion of adenosine

Reference: patent US7456161B2 (Epigenesis Pharmaceuticals, LLC, priority 2001, dated 2008)
